Reference: PMC9960274, “Peptidic Inhibitors and a Fluorescent Probe for the Selective Inhibition and Labelling of Factor XIIIa Transglutaminase” (Molecules, 2023)
Non-standard residues stand in square brackets, D forms with d. Residues, ends and D or L forms follow the SMILES beside them. ξ: configuration not given here. *: point of attachment. ONp = O=[N+]([O-])c1ccc(O*)cc1; ξE = NC(CCC(=O)O)C(=O)O; Cbz = O=C(OCc1ccccc1)*

Assays:
Human TG2 = biological target: T1, Human TG2 (Homo sapiens, UniProt P21980); design: method as in PMID 35158154, PMID 28858494; conditions: read-out: KM of substrate for TG2; cited from earlier work
T1 construct: made in house
T1 sequence (P21980 1-687): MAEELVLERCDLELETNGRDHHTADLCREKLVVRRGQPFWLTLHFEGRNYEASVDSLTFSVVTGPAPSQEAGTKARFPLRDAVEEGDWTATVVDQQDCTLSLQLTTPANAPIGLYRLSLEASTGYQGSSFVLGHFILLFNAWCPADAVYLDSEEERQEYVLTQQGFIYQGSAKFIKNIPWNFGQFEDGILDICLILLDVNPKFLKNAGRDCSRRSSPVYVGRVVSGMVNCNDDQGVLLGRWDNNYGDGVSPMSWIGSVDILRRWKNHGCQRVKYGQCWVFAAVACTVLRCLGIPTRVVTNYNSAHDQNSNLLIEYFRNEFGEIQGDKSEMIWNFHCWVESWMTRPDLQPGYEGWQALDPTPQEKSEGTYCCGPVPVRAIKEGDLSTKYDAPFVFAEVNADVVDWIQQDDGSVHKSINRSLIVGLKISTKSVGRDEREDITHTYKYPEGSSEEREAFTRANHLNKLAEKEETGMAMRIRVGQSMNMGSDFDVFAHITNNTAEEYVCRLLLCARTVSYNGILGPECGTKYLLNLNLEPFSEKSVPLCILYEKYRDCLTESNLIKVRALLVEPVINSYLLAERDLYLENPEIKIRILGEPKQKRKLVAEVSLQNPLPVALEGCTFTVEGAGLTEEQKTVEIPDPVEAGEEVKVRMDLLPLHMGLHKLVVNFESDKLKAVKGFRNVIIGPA

[1] = biological target: T2, Thrombin-activated human FXIIIa (Homo sapiens, UniProt P00488); test: Fluorescence-quenched A101 isopeptidase assay of FXIIIa inhibition kinetics; format: biochemical; conditions: 0, 100, 200, 320 µM
T2 construct: purchased Zedira GmbH T070
T2 sequence (P00488 39-732 limits assumed): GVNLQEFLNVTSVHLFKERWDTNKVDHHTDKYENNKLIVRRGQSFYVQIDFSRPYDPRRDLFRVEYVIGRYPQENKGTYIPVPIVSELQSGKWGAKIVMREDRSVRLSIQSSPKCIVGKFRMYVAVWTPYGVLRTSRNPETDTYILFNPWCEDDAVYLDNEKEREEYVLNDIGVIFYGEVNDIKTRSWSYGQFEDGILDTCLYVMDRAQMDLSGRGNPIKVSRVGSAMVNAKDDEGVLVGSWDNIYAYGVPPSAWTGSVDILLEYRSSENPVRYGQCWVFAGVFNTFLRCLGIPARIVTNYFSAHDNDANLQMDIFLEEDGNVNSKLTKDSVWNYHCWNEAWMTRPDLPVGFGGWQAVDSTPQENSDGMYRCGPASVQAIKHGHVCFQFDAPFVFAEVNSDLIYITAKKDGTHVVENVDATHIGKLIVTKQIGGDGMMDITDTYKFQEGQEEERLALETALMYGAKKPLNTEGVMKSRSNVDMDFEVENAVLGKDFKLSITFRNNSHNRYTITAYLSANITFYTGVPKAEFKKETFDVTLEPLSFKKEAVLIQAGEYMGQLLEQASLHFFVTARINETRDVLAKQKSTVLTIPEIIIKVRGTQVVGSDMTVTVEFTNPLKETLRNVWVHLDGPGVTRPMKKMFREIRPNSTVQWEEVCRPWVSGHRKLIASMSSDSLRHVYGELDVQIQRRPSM

SMILES	Km (Human TG2)	traces in FXIIIa A101 inhibition assay (fluorescence interference control) [1]
O=C(O)CNC(=O)C(CCC(=O)Oc1ccc([N+](=O)[O-])cc1)NC(=O)OCc1ccccc1 (centres unmarked) [AL5, Cbz-Glu(ɣ-p-nitrophenyl ester)Gly-OH] (Cbz-[ξE](ONp)-Gly-OH)	10 µM	–
CN(C)c1cccc2c(S(N)(=O)=O)cccc12 [Dansyl amide]	–	nearly identical traces as those obtained using the dansylated inhibitor library
